Data from US20240182446A1, “TYK2 INHIBITOR COMPOUND CONTAINING BICYCLIC RING” (CHIA TAI TIANQING PHARMACEUTICAL GROUP CO., LTD., priority 2021, published 2024).
Like-named read-outs stand apart in the source and are kept apart here. Marks after values point to notes of the source that are not given here.

What was measured:
[1] = tested on: mouse colitis model induced by anti-mouse CD40 antibody; experiment: Pharmacodynamics in mouse colitis model induced by anti-CD40 mAb antibody; type: in vivo, CB17-SCID mice; conditions: Day 7, vs model control
Protocol: SPF-grade male CB17-SCID mice (6-8 weeks old) were divided into groups on the first day of the experiment. On the first day of the experiment, the mice in the blank group were intraperitoneally injected with PBS, while the mice in the model group were intraperitoneally injected with anti-mouse CD40 antibody (100 μg, diluted with PBS as a modeling agent solution), so as to establish a mouse colitis model. The injection volume for all groups of mice was 0.1 mL.
The day of grouping was determined as Day 1, and the intragastric administration was started on the grouping day, with a volume of 2 mL/kg administered twice daily for 6 consecutive days. The vehicle for intragastric administration was: DMSO:PEG400=5:95 (volume ratio).
Animal body weights were monitored daily during the experiment. On Day 7, the end point of the experiment, all mice were euthanized and tissue samples were collected. Mice were euthanized by cervical dislocation, abdomen of the mice were cut open, and mouse spleens were collected, weighed, and photographed. The colorectum was separated from the small intestine from the end of the cecum to the anus, and the whole colorectum was removed, photographed, and then dissected longitudinally along its longitudinal axis. The intestinal contents were cleansed with a pre-cooled saline solution. The rinsed colorectum was laid flat in a large flat dish with the mucosal side thereof facing upward. Residual saline solution was removed from the […] with filter paper, and colonic tissues were taken for weighing.
The inhibition rate (%) was calculated according to the following formula: inhibition rate (%)=(M−T)/(M−C)*100% (T: treatment group; C: blank control group; M: model control group).

[2] = In vitro stability in liver microsomes (human); type: in vitro ADME; conditions: compound 1 μM
Protocol: (§1) 300 μL of the final incubation system contained 30 μL of liver microsomes (protein concentration: 5 mg/mL). 30 μL of NADPH+MgCl2, 3 μL of the test compound (in acetonitrile), and 237 μL of PBS buffer (pH 7.4), wherein the proportion of the organic solvent (acetonitrile) was 1% (volume ratio). Samples were prepared in duplicate of 0.30 mL for each specie. Tubes each containing 270 μL of a mixed solution of substrate and enzyme and NADPH were pre-incubated at 37° C. for 5 min. 30 μL of NADPH+MgCl2 was added and the mixture was mixed. 50 μL of the mixture was taken at 0 min, 10 min, 30 min, and 60 min, and 300 μL of glacial acetonitrile containing an internal standard was added to terminate the reaction.
(§2) 300 μL of glacial acetonitrile containing an internal standard (20 ng/mL) was added to 50 μL of the incubated sample for precipitation. The mixture was vortexed for 10 min and centrifuged (13,000 rpm, 20° C.) for 10 min. 70 μL of supernatant was taken and diluted with 70 μL of ultrapure water. After being mixed well, 0.5 μL of the resulting sample was subjected to LC/MS/MS analysis.

[3] = In vivo pharmacokinetics in mice; conditions: ICR mice, plasma; for AUC(0-t): read-out: AUC(0-10 h); for MRT last: read-out: MRT(0-t)
Protocol: ICR mice (Shanghai Institute of Planned Parenthood Research) of 6-8 weeks old, weighing 20-24 g, were randomized into groups of 9 after 3-5 days of acclimatization, and the test compounds at a dose of 15 mg/kg or 30 mg/kg were administered intragastrically to the mice.
The animals to be tested (ICR mice) were fasted for 12 h before administration and food was provided 4 h after administration, and water was freely drunk before and after the experiment and during the experiment.
After intragastrric administration, about 0.1 mL of blood was collected from the orbit at 0.25 (15 min), 0.5 (30 min), 1, 2, 4, 6, 8, and 10 h. Each mouse was subjected to blood collection at 3-4 time points, with three mice per time point. The blood samples were mixed with EDTA-K2 anticoagulant, transferred to a centrifuge within 30 min, and then centrifuged at 4000 rpm for 10 min. at 4° C. to separate the plasma. All the plasma samples were collected and immediately stored at −20° C. for testing.
400 μL of acetonitrile solution containing an internal standard (20 ng/mL) was added to 20 μL of the collected plasma sample to be tested. The mixture was shaken and mixed well for 10 min, and centrifuged at 13,000 rpm for 10 min 50 μL of supernatant was taken and diluted with 100 μL of ultrapure water. After being mixed well, 0.5 μL of the resulting sample was subjected to LC/MS/MS, and a chromatogram was recorded.
Oral exposure of the compounds disclosed herein was evaluated by in vivo pharmacokinetic experiments in mice.

[4] = In vitro stability in liver microsomes (mouse); type: in vitro ADME; conditions: compound 1 μM
Protocol: as §1, §2

[5] = tested on: STAT3 phosphorylation in Jurkat cells; experiment: Detection of STAT3 phosphorylation using Jurkat cells stimulated with IFN-α; type: cell-based; conditions: Homo sapiens, IFN-α 25 ng/mL, 30 min, compound pre-incubation 1.5 h
Protocol: 20 μL of Jurkat cells growing at log phase were taken and counted, and the required number of cells (mL) were taken and centrifuged at 1300 rpm for 3 min. Phenol red-free 1640 base medium (Hyclone) was added to adjust the cell density to about 1.7*10E7 cells/mL. The cells were seeded according to the above cell density in a 384-well plate (small-volume white plate) at 8 μL per well. The compound was added with a nanoliter pipettor, and the plate was incubated for 1.5 h. IFN-α (Beijing Sino Biological) was diluted to 75 ng/mL (with a final concentration of 25 ng/mL) with phenol red-free 1640 base medium. Subsequently, 4 μL of IFN-α (3×) was added to each well according to the plate distribution. The blank group was seeded with cells, without compound and IFN-α. The control group was seeded with cells, without compound but with IFN-α. The plate was incubated at 37° C. for 30 min. 4 μL of lysis buffer (4×) containing blocking buffer was added immediately, and the cells were lysed by shaking at room temperature for 40 min. […] pre-mixed antibody (vol/vol) in assay buffer was added and the plate was covered. The mixture was mixed well by centrifugation and incubated overnight at room temperature. Signal values at 665 nm/620 nm were detected using a PE Envision multi-functional microplate reader, and IC50 was calculated by tour-parameter fitting.

[6] = In vitro stability in liver microsomes (monkey); type: in vitro ADME; conditions: compound 1 μM
Protocol: as §1, §2

SMILES	Human Residuals at 60 min (%) [2] [%]	Mouse Residuals at 60 min (%) [4] [%]	IC50 [5] [nM]	further results
[2H]C([2H])([2H])NC(=O)c1nnc(NC(=O)C2CC2)cc1Nc1cccc(-c2ncc(-c3ccnn3C)cn2)c1OC [Compound 34-h]	99.75	92.69	5.7	Spleen coefficient Inhibition rate (%) ([1]; 5 mg/kg i.g. bid for 6 days): 83%***; Spleen weight Inhibition rate (%) ([1]; 5 mg/kg i.g. bid for 6 days): 82%***; Weight of intestinal tissue per unit length Inhibition rate (%) ([1]; 5 mg/kg i.g. bid for 6 days): 70%***; AUC(0-inf) ([3]; mouse, po, IG 15 mg/kg): 66700 ng·h/mL; Tmax ([3]; mouse, po, IG 15 mg/kg): 240 min; half-life ([3]; mouse, po, IG 15 mg/kg): 251 min; AUC(0-t) ([3]; mouse, po, IG 15 mg/kg): 65300 ng·h/mL; Cmax ([3]; mouse, po, IG 15 mg/kg, read-out: Cmax): 10200 ng/mL; MRT last ([3]; mouse, po, IG 15 mg/kg): 4.44 h
[2H]C([2H])([2H])NC(=O)c1nnc(NC(=O)C2CC2)cc1Nc1cccc(-c2ncc(N3CC[C@@H](O)C3)cn2)c1OC [Compound 59-j]		100.66	5	
[2H]C([2H])([2H])NC(=O)c1nnc(NC(=O)C2CC2)cc1Nc1cccc(-c2ncc(N3CC(O)C3)cn2)c1OC [Compound 51-j]		96.42	7.1	
[2H]C([2H])([2H])NC(=O)c1nnc(NC(=O)C2CC2)cc1Nc1cccc(-c2ncc(N3CC[C@@H](O)C3)cn2)c1OC [Compound 44-j]	98.44	91.31		
[2H]C([2H])([2H])NC(=O)c1nnc(NC(=O)C2CC2)cc1Nc1cccc(-c2ncc(N3CCCC3=O)cn2)c1OC [Compound 18-h]	106.77	94.80	5.3	
[2H]C([2H])([2H])NC(=O)c1nnc(NC(=O)C2CC2)cc1Nc1cccc(-c2ncc(-n3ccnc3C)cn2)c1OC [Compound 55-j]			5.2	
[2H]C([2H])([2H])NC(=O)c1nnc(NC(=O)C2CC2)cc1Nc1cccc(-c2ncc(N3CCC(C)(C)C3=O)cn2)c1OC [Compound 49-j]			5.2	
[2H]C([2H])([2H])NC(=O)c1nnc(NC(=O)C2CC2)cc1Nc1cccc(-c2ncc(-c3ccc(F)nc3)cn2)c1OC [Compound 3-j]	103.99	99.92		Monkey Residuals at 60 min (%) [6]: 95.82%
[2H]C([2H])([2H])NC(=O)c1nnc(NC(=O)C2CC2)cc1Nc1cccc(-c2ncc(N3CC[C@H](O)C3)cn2)c1OC [Compound 53-j]		94.17	5.1	
[2H]C([2H])([2H])NC(=O)c1nnc(NC(=O)C2CC2)cc1Nc1cccc(-c2ncc(-c3cccnc3C#N)cn2)c1OC [Compound 26-h]			5.3	
[2H]C([2H])([2H])NC(=O)c1cnc(NC(=O)C2CC2)cc1Nc1cccc(-c2ncc(N3CCCC3)cn2)c1OC [Compound 60-j]			8.5	

The remaining compounds from weak to strong by IC50 [5], led by results:

Human Residuals at 60 min (%) [2] [%]	Mouse Residuals at 60 min (%) [4] [%]	IC50 [5] [nM]	SMILES	further results
		4.5	[2H]C([2H])([2H])NC(=O)c1nnc(NC(=O)C2CC2)cc1Nc1cccc(-c2ncc(-c3cccnc3)cn2)c1OC [Compound 1-j]	
		4.5	[2H]C([2H])([2H])NC(=O)c1nnc(NC(=O)C2CC2)cc1Nc1cccc(-c2ncc(-c3ccc(F)nc3F)cn2)c1OC [Compound 12-j]	
		4.4	[2H]C([2H])([2H])NC(=O)c1cnc(NC(=O)C2CC2)cc1Nc1cccc(-c2ncc(-c3cccnc3F)cn2)c1OC [Compound 57-j]	
	92.35	3.4	[2H]C([2H])([2H])NC(=O)c1nnc(NC(=O)C2CC2)cc1Nc1cccc(-c2ncc(-c3cncnc3C)cn2)c1OC [Compound 54-j]	
107.15	99.08	2.9	[2H]C([2H])([2H])NC(=O)c1nnc(NC(=O)C2CC2)cc1Nc1cccc(-c2ncc(-c3cccnc3F)cn2)c1OC [Compound 5-j]	AUC(0-inf) ([3]; mouse, po, IG 30 mg/kg): 62600 ng·h/mL; Tmax ([3]; mouse, po, IG 30 mg/kg): 30 min; half-life ([3]; mouse, po, IG 30 mg/kg): 269 min; AUC(0-t) ([3]; mouse, po, IG 30 mg/kg): 60800 ng·h/mL; Cmax ([3]; mouse, po, IG 30 mg/kg, read-out: Cmax): 8100 ng/mL; MRT last ([3]; mouse, po, IG 30 mg/kg): 6.26 h; Monkey Residuals at 60 min (%) [6]: 99.31%
		2.7	[2H]C([2H])([2H])NC(=O)c1nnc(NC(=O)C2CC2)cc1Nc1cccc(-c2ncc(-c3cccnc3C)cn2)c1OC [Compound 52-j]	Spleen coefficient Inhibition rate (%) ([1]; 15 mg/kg i.g. bid for 6 days): 101%***; Spleen weight Inhibition rate (%) ([1]; 15 mg/kg i.g. bid for 6 days): 102%***; Weight of intestinal tissue per unit length Inhibition rate (%) ([1]; 15 mg/kg i.g. bid for 6 days): 101%***
100.18		2.4	[2H]C([2H])([2H])NC(=O)c1nnc(NC(=O)C2CC2)cc1Nc1cccc(-c2ncc(-c3cccnc3C(F)(F)F)cn2)c1OC [Compound 6-j]	Spleen coefficient Inhibition rate (%) ([1]; 5 mg/kg i.g. bid for 6 days): 81.78%**; Spleen weight Inhibition rate (%) ([1]; 5 mg/kg i.g. bid for 6 days): 83.38%; Weight of intestinal tissue per unit length Inhibition rate (%) ([1]; 5 mg/kg i.g. bid for 6 days): 76.21%***; Cmax ([3]; IG 30 mg/kg): 12534 ng/mL; t1/2 ([3]; IG 30 mg/kg): 6.26 h; AUC(0-inf) ([3]; mouse, po, IG 30 mg/kg): 63600 ng·h/mL; Tmax ([3]; mouse, po, IG 30 mg/kg): 30 min; AUC(0-t) ([3]; mouse, po, IG 30 mg/kg): 61200 ng·h/mL; MRT last ([3]; mouse, po, IG 30 mg/kg): 4.74 h
		2.4	[2H]C([2H])([2H])NC(=O)c1nnc(NC(=O)C2CC2)cc1Nc1cccc(-c2ncc(N3CC(C)(C)CC3=O)cn2)c1OC [Compound 47-j]	
